15 compounds from BindingDB's records for patent US20250235456 (Iambic Therapeutics, 2025) can be followed below.

A value given as a limit tells only on which side of the number the result lay.

Experiment [1] has as its target Cyclin-dependent kinase 1 (Homo sapiens, UniProt P06493). The experiment can be described thus: CDK1/Cyclin B1 ADP-Glo Kinase Assay. As to the method: (§1) The purpose of CDK1/Cyclin Bi assay is to evaluate the inhibition (% inhibition and IC50 values) of small molecule inhibitors by using a Luminescent based ADP-Glo assay. CDK1/Cyclin B1 catalyzes the production of ADP from ATP. ADP-Glo assay monitors ADP producing biochemical reactions. ADP-Glo is performed in 2 steps upon completion of kinase reaction: a combined termination of kinase reaction and depletion of remaining ATP in the first step, and conversion of generated ADP to ATP and the newly produced ATP to light output using luciferase/luciferin reaction in the second step. The luminescent signal generated is proportional to the ADP concentration produced and is correlated with the kinase activity. CDK1/Cyclin B1 was purchased from Carna (Cat 04-102). […] The assay was initiated with the addition of ATP-containing substrate solution, following a 30-minute pre-incubation of enzyme and inhibitor at room temperature in the reaction mixture. The reaction was stopped after 90 minutes at room temperature by the addition of 10 μL of ADP-GLO Reagent. After a 90 minute incubation, 20 μL of Kinase Detection Reagent was added. Samples were incubated for 40 minutes, after which plate well luminescence was measured on a Envision microplate reader. The IC50 determinations were made from a plot of the fractional velocity as a function of inhibitor concentration fit to the 4 parameters IC50 equation.
On the technique in general: In ADP-Glo the light output rises with the ADP produced.

For experiment [2], the target named is Cyclin-dependent kinase 2/G1/S-specific cyclin-E1 (Homo sapiens, UniProt P24941). Kind of experiment: CDK2/Cyclin E1 ADP-Glo Kinase Assay. As to the method:
as §1, with “of CDK2/Cyclin El” for “of CDK1/Cyclin Bi”, “assay. CDK2/Cyclin El full length” for “assay. CDK1/Cyclin B1”, “activity. CDK2/Cyclin E1” for “activity. CDK1/Cyclin B1”, “from Eurofins” for “from Carna”, “(Cat 14-475M).” for “(Cat 04-102).”, “20 uL” for “20 μL”

Experiment [3] addresses Cyclin-dependent kinase 6/G1/S-specific cyclin-D3 (Homo sapiens, UniProt Q00534). The experiment can be described thus: CDK6/Cyclin D3 ADP-Glo Kinase Assay. As to the method:
as §1, with “of the CDK6/Cyclin D3” for “of CDK1/Cyclin Bi”, “values) in the presence” for “values)”, “assay. CDK6/Cyclin D3” for “assay. CDK1/Cyclin B1”, “activity. CDK6/Cychin D3” for “activity. CDK1/Cyclin B1”, “from Carna.” for “from Carna (Cat 04-102).”, “a 90-minute” for “a 90 minute”

Sequence of Cyclin-dependent kinase 1 (P06493 whole entry): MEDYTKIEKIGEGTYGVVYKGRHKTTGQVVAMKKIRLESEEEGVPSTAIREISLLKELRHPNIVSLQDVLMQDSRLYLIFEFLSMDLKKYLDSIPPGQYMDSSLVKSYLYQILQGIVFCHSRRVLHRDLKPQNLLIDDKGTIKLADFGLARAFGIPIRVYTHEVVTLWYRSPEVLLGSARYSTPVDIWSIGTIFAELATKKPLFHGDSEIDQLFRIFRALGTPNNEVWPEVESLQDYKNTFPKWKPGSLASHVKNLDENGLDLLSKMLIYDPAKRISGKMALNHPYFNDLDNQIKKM
Sequence of Cyclin-dependent kinase 6/G1/S-specific cyclin-D3 (Q00534 whole entry): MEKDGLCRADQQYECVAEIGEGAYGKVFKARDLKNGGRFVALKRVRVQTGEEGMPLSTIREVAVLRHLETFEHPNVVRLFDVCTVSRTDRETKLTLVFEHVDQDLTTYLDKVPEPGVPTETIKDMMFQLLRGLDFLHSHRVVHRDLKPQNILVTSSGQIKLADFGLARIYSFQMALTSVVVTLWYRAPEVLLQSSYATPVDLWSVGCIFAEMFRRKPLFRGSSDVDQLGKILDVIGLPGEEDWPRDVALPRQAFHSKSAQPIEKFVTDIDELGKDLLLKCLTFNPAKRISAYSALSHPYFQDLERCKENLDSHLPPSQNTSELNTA
Sequence of Cyclin-dependent kinase 6/G1/S-specific cyclin-D3 (P30281 whole entry, further chain): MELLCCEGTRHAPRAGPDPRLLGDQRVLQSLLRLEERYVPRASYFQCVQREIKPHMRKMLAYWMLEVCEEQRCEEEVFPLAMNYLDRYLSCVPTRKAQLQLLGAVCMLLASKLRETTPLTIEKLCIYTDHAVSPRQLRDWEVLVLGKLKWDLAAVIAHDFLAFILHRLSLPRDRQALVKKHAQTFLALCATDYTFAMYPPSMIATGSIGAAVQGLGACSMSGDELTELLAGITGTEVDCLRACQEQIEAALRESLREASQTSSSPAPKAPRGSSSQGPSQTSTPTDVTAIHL

For orientation: IC50 means the concentration that gives 50% inhibition. In the case of `Cc1cc2cnc(NC3CCN(S(C)(=O)=O)CC3)nc2c(N2CC3(CN(C)CC3(F)F)C2)n1` [US20250235456, Compound 101], the IC50 in experiment [1] is 200 to 500 nM; in experiment [2], under 200 nM; in experiment [3], under 200 nM.

Consider `Cc1cc2cnc(NC3CCN(S(C)(=O)=O)CC3)nc2c(N2CC3(CNCC3(F)F)C2)n1` [US20250235456, Compound 85], for which the IC50 in experiment [1], in experiment [2] and in experiment [3] was under 200 nM throughout.

In the case of `Cc1cc2cnc(NC3CCN(S(=O)(=O)C4CC4)CC3)nc2c(N2CC(OC3CC3)C2)n1` [US20250235456, Compound 57], the IC50 in experiment [1] is 200 to 500 nM; in experiment [2] it was under 200 nM; in experiment [3] it was under 200 nM.

Turning to `Cc1cc2cnc(NC3CCN(S(C)(=O)=O)CC3)nc2c(N2CC3(CNCC3C(F)F)C2)n1` (stereo unspecified) [US20250235456, Compound 100], the IC50 in experiment [1], in experiment [2] and in experiment [3] was under 200 nM throughout.

In the case of `CN1Cc2ccc(Nc3ncc4ccnc(N5CCC6(C5)CC6(F)F)c4n3)cc2C1` (stereo unspecified) [US20250235456, Compound 22], the IC50 in experiment [1], in experiment [2] and in experiment [3] was under 200 nM each time.

Consider `Cc1cc2cnc(NC3CCN(S(=O)(=O)C4CC4)CC3)nc2c(N2CC3(C2)CN(C2CC2)C3)n1` [US20250235456, Compound 48], for which the half-inhibitory concentration (IC50) is under 200 nM in experiment [2] and 200 to 500 nM in experiment [3].

In turn, `Cc1cc2cnc(NC3CCN(S(C)(=O)=O)CC3)nc2c(C2CC(C)(CO)C2)n1` (stereo unspecified) [US20250235456, Compound 69] had an IC50 in experiment [1] of under 200 nM.

For `Cc1cc2cnc(NC3CCN(S(=O)(=O)CCC4(C)CC4)CC3)nc2c(N2CC(F)(F)C3(CNC3)C2)n1` [US20250235456, Compound 67], the IC50 in experiment [1] is 200 to 500 nM; in experiment [2], under 200 nM; in experiment [3] it was 200 to 500 nM.

With `Cc1cc2cnc(NC3CCN(S(=O)(=O)C4CC4)CC3)nc2c(N2CC3(CC(O)C3)C2)n1` [US20250235456, Compound 66], the half-maximal inhibitory concentration (IC50) in experiment [2] and in experiment [3] was under 200 nM each time.

Take `Cc1cc2cnc(NC3CCN(S(=O)(=O)c4ccn(C)n4)CC3)nc2c(N2CC(F)(F)C3(CNC3)C2)n1` [US20250235456, Compound 94]: the IC50 in experiment [2] is under 200 nM.

For `Cc1cc2cnc(Nc3cnn(CC4(N(C)C)CC4)c3)nc2c(N2CCC3(C2)CC3(F)F)n1` (stereo unspecified) [US20250235456, Compound 36], the concentration for half-maximal inhibition (IC50) is over 2000 nM in experiment [1] and “in the range around 350 nM” in experiment [2].

For the compound `Cc1cc2cnc(NC3CCN(S(=O)(=O)C4(C)CC4)CC3)nc2c(N2CCC3(CN(C)C3)C2)n1` [US20250235456, Compound 59], the IC50 in experiment [2] and in experiment [3] was under 200 nM in each case.

For `Cc1cc2cnc(N[C@@H]3CCOC[C@H]3O)nc2c(N2CC(O)(C3CC3)C2)n1` [US20250235456, Compound 86], the values for the IC50 in experiment [1], in experiment [2] and in experiment [3] were over 2000 nM, “in the range around 350 nM” and 200 to 500 nM, respectively.

`CS(=O)(=O)N1CCC(Nc2ncc3cc(C(F)F)nc(N4CC5(CCNCC5(F)F)C4)c3n2)CC1` [US20250235456, Compound 90]: the IC50 in experiment [2] and in experiment [3] was under 200 nM each time.

For the compound `Cc1cc2cnc(NC3CC4CC3CN4C)nc2c(N2CCC3(C2)CC3(F)F)n1` (stereo unspecified) [US20250235456, Compound 43], the results for the 50% inhibitory concentration (IC50) in experiment [1], in experiment [2] and in experiment [3] were over 2000 nM, “in the range around 1250 nM” and 200 to 500 nM, respectively.
